Consider eleven compounds from patent US10125100B2, “Kinase inhibitors” (Respivert Limited, priority 2014, dated 2018).

Some results are limits rather than exact numbers.

For series [1], the target named is c-Src (Homo sapiens (Human), UniProt P12931). The series can be described thus: c-Src enzyme inhibition, Z-LYTE FRET. In kind it is biochemical. As for the experimental part: (§1) The enzyme inhibitory activities of compounds disclosed herein are determined by FRET using synthetic peptides labelled with both donor and acceptor fluorophores (Z-LYTE, Invitrogen Ltd., Paisley, UK).
Sequence of c-Src (P12931 whole entry, looked up): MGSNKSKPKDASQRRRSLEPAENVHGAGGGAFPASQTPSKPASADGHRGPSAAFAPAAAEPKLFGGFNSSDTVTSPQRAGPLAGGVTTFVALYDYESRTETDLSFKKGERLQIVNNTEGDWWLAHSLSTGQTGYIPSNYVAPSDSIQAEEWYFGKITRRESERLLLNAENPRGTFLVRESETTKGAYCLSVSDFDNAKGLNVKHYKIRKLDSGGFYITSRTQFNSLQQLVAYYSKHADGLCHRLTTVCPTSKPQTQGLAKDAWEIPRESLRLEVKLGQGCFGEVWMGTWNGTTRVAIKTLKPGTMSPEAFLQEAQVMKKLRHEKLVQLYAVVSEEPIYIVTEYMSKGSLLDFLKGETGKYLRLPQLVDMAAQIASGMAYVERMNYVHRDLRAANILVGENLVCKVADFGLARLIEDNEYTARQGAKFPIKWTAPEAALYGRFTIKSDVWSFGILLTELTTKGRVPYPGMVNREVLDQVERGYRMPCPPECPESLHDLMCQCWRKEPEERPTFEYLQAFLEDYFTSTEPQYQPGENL
The inhibitory activities of compounds of the invention against c-Src and Syk enzymes (Invitrogen), are evaluated in a similar fashion to that described hereinabove. The relevant enzyme (3000 ng/mL or 2000 ng/mL respectively, 2.5 μL) is incubated with the test compound (either 1 μg/mL, 0.1 μg/mL, 0.01 μg/mL, or 0.001 μg/mL, 2.5 μL each) for 2 hr at RT. The FRET peptides (8 μM, 2.5 μL), and appropriate ATP solutions (2.5 μL, 800 μM for c-Src, and 60 μM ATP for Syk) are then added to the enzymes/compound mixtures and the mixture incubated for 1 hr. Development reagent (protease, 5 μL) is added for 1 hr prior to detection in a fluorescence microplate reader (Varioskan® Flash, ThermoFisher Scientific).
(§2) In all cases, the site-specific protease cleaves non-phosphorylated peptide only and eliminates the FRET signal. Phosphorylation levels of each reaction are calculated using the ratio of coumarin emission (donor) over fluorescein emission (acceptor), for which high ratios indicate high phosphorylation and low ratios indicate low phosphorylation levels.

Series [2] addresses Syk (Homo sapiens (Human), UniProt P43405). The series can be described thus: Syk enzyme inhibition, Z-LYTE FRET. The format is biochemical. As for the experimental part: as §1
The relevant enzyme (3000 ng/mL or 2000 ng/mL respectively, 2.5 μL) is incubated with the test compound (either 1 μg/mL, 0.1 μg/mL, 0.01 μg/mL, or 0.001 μg/mL, 2.5 μL each) for 2 hr at RT. The FRET peptides (8 μM, 2.5 μL), and appropriate ATP solutions (2.5 μL, 800 μM for c-Src, and 60 μM ATP for Syk) are then added to the enzymes/compound mixtures and the mixture incubated for 1 hr. Development reagent (protease, 5 μL) is added for 1 hr prior to detection in a fluorescence microplate reader (Varioskan® Flash, ThermoFisher Scientific).
as §2

Series [3] relates to mitosis in PBMCs. Briefly: (g) Cell mitosis assay. As to conditions: Homo sapiens, PBMC, 5 μg/mL. In kind it is cell-based. How it is done: Peripheral blood mononucleocytes (PBMCs) from healthy subjects are separated from whole blood (Quintiles, London, UK) using a density gradient (Histopaque®-1077, Sigma-Aldrich, Poole, UK). The PBMCs (3 million cells per sample) are subsequently treated with 2% PHA (phytohaemagglutinin, Sigma-Aldrich, Poole, UK) for 48 hr, followed by a 20 hr exposure to varying concentrations of test compounds. At 2 hr before collection, PBMCs are treated with demecolcine (0.1 μg/mL; Invitrogen, Paisley, UK) to arrest cells in metaphase. To observe mitotic cells, PBMCs are permeabilized and fixed by adding Intraprep (50 μL; Beckman Coulter, France), and stained with anti-phospho-histone 3 ([…]; #9701; Cell Signalling, Danvers, Mass.) and propidium iodide (1 mg/mL; Sigma-Aldrich, Poole, UK) as previously described (Muehlbauer P. A. and Schuler M. J., Mutation Research, 2003, 537:117-130). Fluorescence is observed using an ATTUNE flow cytometer (Invitrogen, Paisley, UK), gating for lymphocytes.

Series [4] concerns the target p38 MAPKα (MAPK14) (Homo sapiens (Human), UniProt Q16539). Briefly: p38 MAPKα enzyme inhibition (Method 2), Z-LYTE FRET. The format is biochemical. As for the experimental part: as §1
The following two assay variants can be used for determination of p38 MAPKα inhibition.
The inhibitory activities of test compounds against the p38 MAPKα isoform (MAPK14: Invitrogen) are evaluated indirectly by determining the level of activation/phosphorylation of the down-stream molecule, MAPKAP-K2. The p38 MAPKα protein (80 ng/mL, 2.5 μL) is mixed with the test compound (2.5 μL of either 4 μg/mL, 0.4 μg/mL, 0.04 μg/mL or 0.004 μg/mL) for 2 hr at RT. […] The mixture is incubated for 1 hr at RT. Development reagent (protease, 5 μL) is added for 1 hr prior to detection in a fluorescence microplate reader (Varioskan® Flash, ThermoFisher Scientific).
This method follows the same steps as Method 1 above, but utilises a higher concentration of the p38 MAPKα protein (2.5 μL of 200 ng/mL protein instead of 2.5 μL of 80 ng/mL protein) for mixing with the test compound (tested at either 1 μg/mL, 0.1 μg/mL, 0.01 μg/mL or 0.001 μg/mL).
as §2

The test system of series [5] is Jurkat cells. The series can be described thus: (r) Cell cytotoxicity assay. The conditions noted are these: 24 hours. The format is cell-based, human. In short, it runs like this: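 Viability read by flow cytometry as the fraction of propidium iodide-negative cells (7.5 μg/mL PI, 15 min), relative to 1.0% DMSO control. Beforehand, 1×10^5 Jurkat cells in RPMI/10% FBS were treated 24 h at 37° C., 5% CO2 with test compound at final 20, 5 or 1 μg/mL.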

Sequence of p38 MAPKα (MAPK14) (Q16539 whole entry): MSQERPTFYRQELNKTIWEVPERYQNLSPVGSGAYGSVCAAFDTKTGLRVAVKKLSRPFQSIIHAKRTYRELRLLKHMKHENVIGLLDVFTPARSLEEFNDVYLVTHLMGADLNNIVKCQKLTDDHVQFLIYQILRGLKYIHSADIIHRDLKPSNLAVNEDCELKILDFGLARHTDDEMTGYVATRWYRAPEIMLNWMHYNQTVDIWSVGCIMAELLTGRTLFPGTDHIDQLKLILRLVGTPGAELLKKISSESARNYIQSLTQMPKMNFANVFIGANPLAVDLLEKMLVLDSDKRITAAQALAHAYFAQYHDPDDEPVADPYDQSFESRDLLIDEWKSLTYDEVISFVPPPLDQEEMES

In the case of `COc1cc(Nc2cc(Oc3ccc(NC(=O)Nc4cc(C(C)(C)C)cc(NS(C)(=O)=O)c4OC)c4ccccc34)ccn2)ccc1C(=O)NCCCN1CCCOCC1` [17(aj), 4-[[4-[[4-[[5-tert-butyl-3-(methanesulfonamido)-2-methoxy-phenyl]carbamoylamino]-1-naphthyl]oxy]-2-pyridyl]amino]-2-methoxy-N-[3-(1,4-oxazepan-4-yl)propyl]benzamide], the IC50 is 12 nM in series [1] and 33 nM in series [2]. For the same compound, in series [3], 5 µg/mL produced 94.9% inhibition.

Consider `COCCOCCOCCNC(=O)c1ccc(Nc2cc(Oc3ccc(NC(=O)Nc4cc(C(C)(C)C)cc(NS(C)(=O)=O)c4OC)c4ccccc34)ccn2)cc1OC` [Example 5, 4-((4-((4-(3-(5-(tert-Butyl)-2-methoxy-3-(methylsulfonamido)phenyl)ureido)naphthalen-1-yl)oxy)pyridin-2-yl)amino)-2-methoxy-N-(2-(2-(2-methoxyethoxy)ethoxy)ethyl)benzamide], for which the 50% inhibitory concentration (IC50) was determined as 119 nM in series [4], 31 nM in series [1] and 187 nM in series [2]. Also, the inhibition at 5 µg/mL in series [3] was 27.7%.

In the case of `COCCN(C)CCNC(=O)c1ccc(Nc2cc(Oc3ccc(NC(=O)Nc4cc(C(C)(C)C)cc(NS(C)(=O)=O)c4OC)c4ccccc34)ccn2)cc1OC` [17(ad), 4-[[4-[[4-[[5-tert-butyl-3-(methanesulfonamido)-2-methoxy-phenyl]carbamoylamino]-1-naphthyl]oxy]-2-pyridyl]amino]-2-methoxy-N-[2-[2-methoxyethyl(methyl)amino]ethyl]-benzamide], in series [3], the inhibition at 5 µg/mL was 93.4%. Also, in series [5], the “% Viability at 1 μg/mL” value is 101.4%, the “% Viability at 5 μg/mL” value is 6.3% and the “% Viability at 20 μg/mL” value turned out to be 0.4%.

For `COc1cc(Nc2cc(Oc3ccc(NC(=O)Nc4cc(C(C)(C)C)cc(NS(C)(=O)=O)c4OC)c4ccccc34)ccn2)ccc1C(=O)NCCN1CCS(=O)(=O)CC1` [17(r), 4-[[4-[[4-[[5-tert-butyl-3-(methanesulfonamido)-2-methoxy-phenyl]carbamoylamino]-1-naphthyl]oxy]-2-pyridyl]amino]-N-[2-(1,1-dioxo-1,4-thiazinan-4-yl)ethyl]-2-methoxy-benzamide], the concentration for half-maximal inhibition (IC50) in series [4] came to 119 nM; in series [1], 37 nM; in series [2] it was 102 nM. The inhibition at 5 µg/mL in series [3] was determined as 36.6%.

Regarding `COCCOCCOCCNC(=O)c1ccc(Nc2cc(Oc3ccc(NC(=O)Nc4cc(C(C)(C)C)cc(C(N)=O)c4OC)c4ccccc34)ccn2)cc1OC` [Example 6, 4-((4-((4-(3-(5-(tert-Butyl)-3-carbamoyl-2-methoxyphenyl)ureido)naphthalen-1-yl)oxy)pyridin-2-yl)amino)-2-methoxy-N-(2-(2-(2-methoxyethoxy)ethoxy)ethyl)benzamide], the IC50 is 137 nM in series [4], 36 nM in series [1] and 315 nM in series [2]. In addition, the inhibition at 5 µg/mL in series [3] is 28.8%.

For the compound `COc1cc(Nc2cc(Oc3ccc(NC(=O)Nc4cc(C(C)(C)C)cc(NS(C)(=O)=O)c4OC)c4ccccc34)ccn2)ccc1C(=O)NCCN1CCCOCC1` [17(ai), 4-[[4-[[4-[[5-tert-butyl-3-(methanesulfonamido)-2-methoxy-phenyl]carbamoylamino]-1-naphthyl]oxy]-2-pyridyl]amino]-2-methoxy-N-[2-(1,4-oxazepan-4-yl)ethyl]benzamide], the half-inhibitory concentration (IC50) in series [1] worked out at 14 nM; in series [2], 86 nM. In series [3], this compound showed an inhibition at 5 µg/mL of 89.1%.

For `COc1cc(Nc2cc(Oc3ccc(NC(=O)Nc4cc(C(C)(C)C)cc(NS(C)(=O)=O)c4OC)c4ccccc34)ccn2)ccc1C(=O)NCCN1CC[S+]([O-])CC1` [Example 7, 4-((4-((4-(3-(5-(tert-Butyl)-2-methoxy-3-(methylsulfonamido)phenyl)ureido)naphthalen-1-yl)oxy)pyridin-2-yl)amino)-2-methoxy-N-(2-(1-oxidothiomorpholino)ethyl)benzamide], the figures for the IC50 in series [4], in series [1] and in series [2] were 59 nM, 21 nM and 107 nM, respectively. The inhibition at 5 µg/mL in series [3] amounted to 59.9%.

Turning to `COc1c(NC(=O)Nc2ccc(Oc3ccnc(Nc4ccc(OCCN5CCOCC5)c(C#N)c4)c3)c3ccccc23)cc(C(C)(C)C)cc1NS(C)(=O)=O` [Example 9, N-(5-(tert-Butyl)-3-(3-(4-((2-((3-cyano-4-(2-morpholinoethoxy)phenyl)amino)pyridin-4-yl)oxy)naphthalen-1-yl)ureido)-2-methoxyphenyl)methanesulfonamide], the half-maximal inhibitory concentration (IC50) was 197 nM in series [4], 316 nM in series [1] and greater than 1280 nM in series [2]. Moreover, 5 µg/mL produced 29.8% inhibition in series [3].

The compound `COc1cc(Nc2cc(Oc3ccc(NC(=O)Nc4cc(C(C)(C)C)cc(NS(C)(=O)=O)c4OC)c4ccccc34)ccn2)ccc1C(=O)NCC1CCN(C)CC1` [17(ak), 4-[[4-[[4-[[5-tert-butyl-3-(methanesulfonamido)-2-methoxy-phenyl]carbamoylamino]-1-naphthyl]oxy]-2-pyridyl]amino]-2-methoxy-N-[(1-methyl-4-piperidyl)methyl]benzamide] registered an IC50 in series [1] of 12 nM. In series [2], this compound showed a 50% inhibitory concentration (IC50) of 85 nM. In addition, the inhibition at 5 µg/mL in series [3] is 74.7%. Further, in series [5], the “% Viability at 1 μg/mL” value came to 99.0%, the “% Viability at 5 μg/mL” value is 69.5% and the “% Viability at 20 μg/mL” value was found to be 0.4%.

As to `COc1cc(Nc2cc(Oc3ccc(NC(=O)Nc4cc(C(C)(C)C)cc(NS(C)(=O)=O)c4OC)c4ccccc34)ccn2)ccc1C(=O)NCCN1CCOCC1(C)C` [17(k), 4-[[4-[[4-[[5-tert-butyl-3-(methanesulfonamido)-2-methoxy-phenyl]carbamoylamino]-1-naphthyl]oxy]-2-pyridyl]amino]-N-[2-(3,3-dimethylmorpholin-4-yl)ethyl]-2-methoxy-benzamide], the IC50 in series [4] came out at 156 nM; in series [1] it was 74 nM; in series [2], 336 nM. Besides, testing at 5 µg/mL in series [3] gave an inhibition of 24%.

Turning to `COc1cc(Nc2cc(Oc3ccc(NC(=O)Nc4cc(C(C)(C)C)cc(NS(C)(=O)=O)c4OC)c4ccccc34)ccn2)ccc1C(=O)NCCN1CCN(CCO)CC1` [17(z), 4-[[4-[[4-[[5-tert-butyl-3-(methanesulfonamido)-2-methoxy-phenyl]carbamoylamino]-1-naphthyl]oxy]-2-pyridyl]amino]-N-[2-[4-(2-hydroxyethyl)piperazin-1-yl]ethyl]-2-methoxy-benzamide], at 5 µg/mL the inhibition in series [3] was 69.7%. Moreover, in series [5], the “% Viability at 1 μg/mL” value is on record as 102.9%, the “% Viability at 5 μg/mL” value was 70.9% and the “% Viability at 20 μg/mL” value amounted to 2.0%.

In general, IC50 refers to the point on the concentration scale where inhibition reaches its midpoint. A high value points to weaker potency. As usually defined, the inhibition is the relative decrease from the control value, in per cent. The low end stands for a response near the control, the high end for a response far below the control.
